Data from article PMC5607094 (Biochemical pharmacology, 2017).

Assays:
FPR1 [1] = molecular target: T1, FPR1 (Homo sapiens, UniProt P21462); assay: fMLF-induced Ca2+ flux in human neutrophils; assay type: cell-based
T1 sequence (P21462 1-350): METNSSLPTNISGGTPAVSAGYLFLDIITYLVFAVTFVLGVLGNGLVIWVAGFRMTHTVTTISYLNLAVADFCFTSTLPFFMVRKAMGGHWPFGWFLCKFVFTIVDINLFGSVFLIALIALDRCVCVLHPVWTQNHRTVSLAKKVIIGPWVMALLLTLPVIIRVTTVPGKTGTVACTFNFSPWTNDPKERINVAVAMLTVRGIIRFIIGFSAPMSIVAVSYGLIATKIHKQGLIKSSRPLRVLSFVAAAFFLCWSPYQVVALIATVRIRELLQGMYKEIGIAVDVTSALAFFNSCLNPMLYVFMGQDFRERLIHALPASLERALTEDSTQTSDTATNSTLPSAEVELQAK

human neutrophils [2] = assay: fMLF-induced neutrophil chemotaxis; assay type: cell-based; conditions: read-out: Chemotaxis PMN (+ fMLF) IC50
human neutrophils [3] = assay: fMLF-induced neutrophil adhesion to T84 epithelial cells; assay type: cell-based; conditions: read-out: Adhesion PMN (+ fMLF) IC50
ERK1/2 [4] = assay: ERK1/2 phosphorylation in DMSO-differentiated neutrophil-like HL60 cells; assay type: cell-based, human; conditions: for Inhibition of fMLF-induced phosphorylation of ERK1/2: DMSO-differentiated HL60 cells, 10 min pretreatment, 20 nM fMLF 5 min; for Inhibition of fMLF-induced ERK phosphorylation: cell type not stated in the sentence (Discussion)
FPR1 [5] = molecular target: T1, FPR1; assay: fMLF-induced Ca2+ mobilization in FPR1-HL60 cells; assay type: cell-based; conditions: for Activity class: Active / N.A. = no activity at highest concentration tested in Ca2+ flux assay (50 µM); for FPR1 antagonist activity: fMLF-induced Ca2+ mobilization in FPR1-HL60 cells
ERK1/2 [6] = assay: ERK1/2 phosphorylation in FPR1-RBL cells; assay type: cell-based, rat; conditions: FPR1-RBL cells (Figure 5B; text prints FPR1-HL60), 20 nM fMLF
ERK1/2 [7] = assay: ERK1/2 phosphorylation in human neutrophils; assay type: cell-based; conditions: 10 min pretreatment, 10 nM fMLF
FPR2 [8] = molecular target: T2, FPR2 (Homo sapiens, UniProt P25090); assay: WKYMVM-induced Ca2+ flux in human neutrophils
T2 sequence (P25090 1-351): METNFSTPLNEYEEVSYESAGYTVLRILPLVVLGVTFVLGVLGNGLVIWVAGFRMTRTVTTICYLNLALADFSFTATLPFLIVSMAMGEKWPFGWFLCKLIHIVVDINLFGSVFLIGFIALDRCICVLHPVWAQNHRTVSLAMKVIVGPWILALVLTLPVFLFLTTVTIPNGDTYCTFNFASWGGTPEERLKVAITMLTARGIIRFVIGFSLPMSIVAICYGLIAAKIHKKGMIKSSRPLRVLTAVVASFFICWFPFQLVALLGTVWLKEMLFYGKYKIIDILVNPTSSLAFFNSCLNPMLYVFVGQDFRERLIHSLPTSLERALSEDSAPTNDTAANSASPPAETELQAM

FPR2 [9] = molecular target: T2, FPR2; assay: Ca2+ mobilization in FPR2-HL60 cells

Structure (SMILES) | IC50 (FPR1 [1]) | IC50 (human neutrophils [2]) | IC50 (human neutrophils [3]) | Inhibition of fMLF-induced phosphorylation of ERK1/2 (ERK1/2 [4]) | Inhibition of fMLF-induced ERK phosphorylation (ERK1/2 [4]) | Activity class (FPR1 [5]) | Inhibition of fMLF-induced ERK1/2 phosphorylation (ERK1/2 [6]) | Inhibition of fMLF-induced phosphorylation of ERK1/2 (ERK1/2 [7]) | FPR1 antagonist activity (FPR1 [5]) | IC50 (FPR2 [8]) | IC50 (FPR2 [9])
COc1ccccc1C1C(C(=O)c2ccc(C)cc2)=C(O)C(=O)N1CC(C)O (centres unmarked) [Compound 6, 3-hydroxy-1-(2-hydroxypropyl)-5-(2-methoxyphenyl)-4-(4-methylbenzoyl)-2,5-dihydro-1H-pyrrol-2-one] | 12.4 ± 3.2 µM | 36.3 ± 4 µM |  |  |  |  |  |  |  |  | 
COCCN1C(=O)C(O)=C(C(=O)c2ccccc2)C1c1cc(OC)ccc1OC (centres unmarked) [Compound 17, 4-benzoyl-5-(2,5-dimethoxyphenyl)-3-hydroxy-1-(2-methoxyethyl)-2,5-dihydro-1H-pyrrol-2-one] | 6.7 ± 0.2 µM | 2.2 ± 1.2 µM | 1.1 ± 0.2 µM | effectively inhibited | inhibited | Active | inhibited | effectively inhibited |  |  | 
COCCN1C(=O)C(O)=C(C(=O)c2ccc(C)cc2)C1c1cc(OC)ccc1OC (centres unmarked) [Compound 18, 5-(2,5-dimethoxyphenyl)-3-hydroxy-1-(2-methoxyethyl)-4-(4-methylbenzoyl)-2,5-dihydro-1H-pyrrol-2-one] | 5.2 ± 1.4 µM | 12.4 ± 4.2 µM | 13.3 ± 2.7 µM |  |  | Active |  |  | highly active FPR1 antagonists |  | 
CCCCCCN1C(=O)C(O)=C(C(=O)c2ccc(C)cc2)C1c1ccc(OC)cc1OC (centres unmarked) [Compound 15, 5-(2,4-dimethoxyphenyl)-1-hexyl-3-hydroxy-4-(4-methylbenzoyl)-2,5-dihydro-1H-pyrrol-2-one] | 3.8 ± 1.8 µM | 12.8 ± 4.8 µM |  |  | inhibited | Active |  |  | highly active FPR1 antagonists | 1.7 ± 0.1 µM | 6.5 ± 0.9 µM
CCCCCCN1C(=O)C(O)=C(C(=O)c2ccccc2)C1c1ccc(O)c(OC)c1 (centres unmarked) [Compound 14, 4-benzoyl-1-hexyl-3-hydroxy-5-(4-hydroxy-3-methoxyphenyl)-2,5-dihydro-1H-pyrrol-2-one] | 4.8 ± 0.5 µM | 4.2 ± 1.3 µM | 1.6 ± 0.6 µM | effectively inhibited | inhibited | Active | inhibited | effectively inhibited |  |  | 
CCCN1C(=O)C(O)=C(C(=O)c2ccccc2)C1c1cc(OC)ccc1OC (centres unmarked) [Compound 4, 4-benzoyl-5-(2,5-dimethoxyphenyl)-3-hydroxy-1-propyl-2,5-dihydro-1H-pyrrol-2-one] | 10.7 ± 2.5 µM | 6.3 ± 2.2 µM | 2.9 ± 1.1 µM |  |  | Active |  |  |  |  | 
CCCCN1C(=O)C(O)=C(C(=O)c2ccc(OC)cc2)C1c1ccc(C)cc1 (centres unmarked) [Compound 5, 1-butyl-3-hydroxy-4-(4-methoxybenzoyl)-5-(4-methylphenyl)-2,5-dihydro-1H-pyrrol-2-one] | 26.7 ± 4.6 µM | 21.3 ± 7.6 µM | 25.8 ± 3.2 µM |  |  | Active |  |  |  |  | 
